# According to US20180235993A1 (priority 2000, published 2018):
# Where two headings read alike, the source gives them in different places.
# What was measured:
# [1] = system: Human bone marrow cells (CFU-GM); assay: Human bone marrow toxicity, CFU-GM clonogenic assay; type: cell-based; conditions: Homo sapiens, CFU-GM, read-out: IC50 CFU-GM
# Excerpt: Human bone marrow cells were collected from normal healthy volunteers and the mononuclear population was separated by Ficoll-Hypaque gradient centrifugation as described previously by Sommadossi J-P, Carlisle R. “Toxicity of 3′-azido-3′-deoxythymidine and 9-(1,3-dihydroxy-2-propoxymethyl)guanine for normal human hematopoietic progenitor cells in vitro” Antimicrobial Agents and Chemotherapy 1987; 31:452-454; and Sommadossi J-P, Schinazi R F, Chu C K, Xie M-Y. “Comparison of cytotoxicity of the (−)- and (+)-enantiomer of 2′,3′-dideoxy-3′-thiacytidine in normal human bone marrow progenitor cells” Biochemical Pharmacology 1992; 44:1921-1925. The culture assays for CFU-GM and BFU-E were performed using a bilayer soft agar or methylcellulose method. Drugs were diluted in tissue culture medium and filtered. After 14 to 18 days at 37° C. in a humidified atmosphere of 5% CO2 in air, colonies of greater than 50 cells were counted using an inverted microscope. The results in Table 4 are presented as the percent inhibition of colony formation in the presence of drug compared to solvent control cultures.
# [2] = Cytotoxicity assay (sulforhodamine B, CC50), Human Hepatoma; type: cell-based; conditions: human, Huh7 cells (human hepatoma); Table 13; Huh7 cells
# Procedure: Cells were seeded at a rate of between 5×10^3 and 5×10^4/well into 96-well plates in growth medium overnight at 37° C. in a humidified CO2 (5%) atmosphere. New growth medium containing serial dilutions of the drugs was then added. After incubation for 4 days, cultures were fixed in 50% TCA and stained with sulforhodamineB. The optical density was read at 550 nm. The cytotoxic concentration was expressed as the concentration required to reduce the cell number by 50% (CC50).
# BVDV (strain NADL) = assay: Cell Protection Assay (CPA); type: cell-based, Bovine Viral Diarrhea virus; conditions: Bovine viral diarrhea virus isolates and strains
# Procedure: The assay was performed essentially as described by Baginski, S. G.; Pevear, D. C.; Seipel, M.; Sun, S. C. C.; Benetatos, C. A.; Chunduru, S. K.; Rice, C. M. and M. S. Collett “Mechanism of action of a pestivirus antiviral compound” PNAS USA 2000, 97(14), 7981-7986. MDBK cells (ATCC) were seeded onto 96-well culture plates (4,000 cells per well) 24 hours before use. After infection with BVDV (strain NADL, ATCC) at a multiplicity of infection (MOI) of 0.02 plaque forming units (PFU) per cell, serial dilutions of test compounds were added to both infected and uninfected cells in a final concentration of 0.5% DMSO in growth medium. Each dilution was tested in quadruplicate. Cell densities and virus inocula were adjusted to ensure continuous cell growth throughout the experiment and to achieve more than 90% virus-induced cell destruction in the untreated controls after four days post-infection. After four days, plates were fixed with 50% TCA and stained with sulforhodamine B. The optical density of the wells was read in a microplate reader at 550 nm. The 50% effective concentration (EC50) values were defined as the compound concentration that achieved 50% reduction of cytopathic effect of the virus. FIGS. 4 and 5 provide a graphical illustration of the methodology used to arrive at the 50% effective concentration (EC50) values for β-D-2′-CH3-riboG and ribavirin. FIG. 6 compares the results of the CPA for β-D-2′-CH3-riboG, β-D-2′-CH3-riboC, riboU, β-D-2′-CH3-riboA and ribavirin
# BVDV (NADL strain) = assay: Yield Reduction Assay; type: cell-based, Bovine Viral Diarrhea virus
# Procedure: The assay was performed as described by Baginski, S. G.; Pevear, D. C.; Seipel, M.; Sun, S. C. C.; Benetatos, C. A.; Chunduru, S. K.; Rice, C. M. and M. S. Collett “Mechanism of action of a pestivirus antiviral compound” PNAS USA 2000, 97(14), 7981-7986, with minor modifications. Briefly, MDBK cells were seeded onto 24-well plates (2×10^5 cells per well) 24 hours before infection with BVDV (NADL strain) at a multiplicity of infection (MOI) of 0.1 PFU per cell. Serial dilutions of test compounds were added to cells in a final concentration of 0.5% DMSO in growth medium. Each dilution was tested in triplicate. After three days, cell cultures (cell monolayers and supernatants) were lysed by three freeze-thaw cycles, and virus yield was quantified by plaque assay. Briefly, MDBK cells were seeded onto 6-well plates (5×10^5 cells per well) 24 h before use. Cells were inoculated with 0.2 mL of test lysates for 1 hour, washed and overlaid with 0.5% agarose in growth medium. After 3 days, cell monolayers were fixed with 3.5% formaldehyde and stained with 1% crystal violet (w/v in 50% ethanol) to visualize plaques. FIG. 9 is a graphical illustration of the results from the Yield Reduction Assay. FIG. 8 is an image of BVDV yield reduction in the presence of increasing concentrations of β-D-2′-CH3-riboC.
# YFV-17D = assay: microbe, parasite or virus in culture; type: cell-based, Yellow fever virus vaccine strain 17D; conditions: Yellow fever virus, read-out: YFV EC50
structure (smiles),measurement,setting,value
CC1(O)[C@@H](O)[C@@H](CO)O[C@H]1n1cnc2c(=O)[nH]c(N)nc21 (stereo partly drawn) [β-D-2′-CH3-riboG],IC50,[1],> 10 µM
same,EC50 at 4 days,[2],> 250 µM
same,EC50,"BVDV (strain NADL); 96 h, MDBK cells infected with BVDV, 50% reduction of cytopathic effect, four days, read-out: EC50",4 µM
same,EC50,"BVDV (strain NADL); Table 13, BVDV, read-out: Cell Protection (EC50)",4 µM
same,Conc. for 6-log Reduction,BVDV (NADL strain),20 μM
same,Yield Reduction 6 log10 reduction (μM),BVDV (NADL strain),20 μM
same,reduction in yield reduction assay,BVDV (NADL strain),4 log
same,EC90,"BVDV (NADL strain); Bovine viral diarrhea virus isolates and strains, Table 13, BVDV",3 µM
same,EC50,YFV-17D,1.2 µM
same,CC50,in vitro; cattle (Bos taurus),> 100 µM
same,CC50 at 4 days,in vitro; hamster,20 µM
